Experiments:
[1] = molecular target: Receptor tyrosine-protein kinase erbB-2 (Homo sapiens, UniProt P04626); assay: Inhibition of wild type human GST-tagged HER2 (676 to end residues) expressed in baculovirus infected Sf9 cells incubated for 30 mins in presence of ATP by HTRF analysis
[2] = molecular target: Epidermal growth factor receptor (Homo sapiens, UniProt P00533); assay: Inhibition of wild type human N-terminal GST tagged EGFR (669 to 1210 residues) expressed in Sf21 insect cells incubated for 30 mins in presence of ATP by HTRF analysis
NCI-N87 [3] = assay: Antiproliferative activity against human NCI-N87 cells assessed as inhibition of cell growth incubated for 72 hrs by Celltiter-Glo assay; format: functional, cell-based; details: NCI-N87, 72 h
[4] = Toxicity in BALB/c nude mouse xenografted with human NCI-N87 cells assessed as mortality at 5 to 40 mg/kg, po administered once daily for 21 days; format: organism-based; details: in vivo, 504 h, dose 5-40 mg/kg, time 21 day
[5] = Toxicity in BALB/c nude mouse xenografted with human NCI-N87 cells assessed as reduction in body weight at 5 to 40 mg/kg, po administered once daily for 21 days; format: organism-based; details: in vivo, 504 h, dose 5-40 mg/kg, time 21 day
NCI-N87 [6] = assay: Antitumor activity against human NCI-N87 cells xenografted in BALB/c nude mouse assessed as tumor growth inhibition by measuring relative tumor growth at 5 mg/kg/day, po administered once daily for 21 days by caliper method relative to control; format: functional; details: time 21 day
[7] = Metabolic stability in human liver microsomes assessed as half life at 1 uM preincubated for 5 mins followed by NADPH addition by LC-MS/MS analysis; format: ADME, Microsome
[8] = Clearance in Sprague-Dawley rat at 3 mg/kg, iv measured upto 1440 mins by LC/MS/MS analysis; format: ADME, organism-based; details: in vivo
[9] = Clearance in cynomolgus monkey at 1 mg/kg, iv measured upto 1440 mins by LC/MS/MS analysis; format: ADME, organism-based, Macaca fascicularis; details: in vivo
[10] = Half life in ICR mouse at 3 mg/kg, iv measured upto 1440 mins by LC/MS/MS analysis; format: ADME, organism-based; details: in vivo
[11] = Cmax in ICR mouse at 10 mg/kg, po measured upto 1440 mins by LC/MS/MS analysis; format: ADME, organism-based; design: dose 10 mg/kg, time < 1440 min, route po; details: in vivo
[12] = AUC (0 to t) in ICR mouse at 10 mg/kg, po measured upto 1440 mins by LC/MS/MS analysis; format: ADME, organism-based; design: time < 1440 min, dose 10 mg/kg, route po; details: in vivo
[13] = Half life in ICR mouse at 10 mg/kg, po measured upto 1440 mins by LC/MS/MS analysis; format: ADME, organism-based; details: in vivo
[14] = Oral bioavailability in ICR mouse at 10 mg/kg measured upto 1440 mins by LC/MS/MS analysis; format: ADME, organism-based; details: in vivo
[15] = Half life in Sprague-Dawley rat at 3 mg/kg, iv measured upto 1440 mins by LC/MS/MS analysis; format: ADME, organism-based; details: in vivo
[16] = Volume of distribution at steady state in Sprague-Dawley rat at 3 mg/kg, iv measured upto 1440 mins by LC/MS/MS analysis; format: ADME, organism-based; details: in vivo, read-out: Vdss
[17] = Cmax in Sprague-Dawley rat at 10 mg/kg, po measured upto 1440 mins by LC/MS/MS analysis; format: ADME, organism-based; design: time < 1440 min, dose 10 mg/kg, route po; details: in vivo
[18] = Tmax in Sprague-Dawley rat at 10 mg/kg, po measured upto 1440 mins by LC/MS/MS analysis; format: ADME, organism-based; details: in vivo
[19] = AUC (0 to t) in Sprague-Dawley rat at 10 mg/kg, po measured upto 1440 mins by LC/MS/MS analysis; format: ADME, organism-based; design: dose 10 mg/kg, time < 1440 min, route po; details: in vivo
[20] = Half life in cynomolgus monkey at 1 mg/kg, iv measured upto 1440 mins by LC/MS/MS analysis; format: ADME, organism-based, Macaca fascicularis; details: in vivo
[21] = Volume of distribution at steady state in cynomolgus monkey at 1 mg/kg, iv measured upto 1440 mins by LC/MS/MS analysis; format: ADME, organism-based, Macaca fascicularis; details: in vivo, read-out: Vdss
[22] = Cmax in cynomolgus monkey at 15 mg/kg, po measured upto 1440 mins by LC/MS/MS analysis; format: ADME, organism-based, Macaca fascicularis; design: dose 15 mg/kg, time < 1440 min, route po; details: in vivo
[23] = Tmax in cynomolgus monkey at 15 mg/kg, po measured upto 1440 mins by LC/MS/MS analysis; format: ADME, organism-based, Macaca fascicularis; details: in vivo
[24] = Half life in cynomolgus monkey at 15 mg/kg, po measured upto 1440 mins by LC/MS/MS analysis; format: ADME, organism-based, Macaca fascicularis; details: in vivo
MFE-280 = assay: Antiproliferative activity against human MFE-280 cells assessed as cell growth inhibition incubated for 72 hrs by Celltiter-Glo assay; format: functional, cell-based; details: MFE-280, 72 h
[25] = Antiproliferative activity against human KM12-Luc cells assessed as cell growth inhibition incubated for 72 hrs by Celltiter-Glo assay; format: functional, cell-based
[26] = molecular target: Receptor tyrosine-protein kinase erbB-2 (Homo sapiens, UniProt P04626, D769H); assay: Inhibition of HER2 D769H mutant (unknown origin) incubated for 120 mins in presence of 33P-ATP by P81 ion exchange cellulose chromatography
NCI-N87 [27] = assay: Antitumor activity against human NCI-N87 cells xenografted in BALB/c nude mouse assessed as tumor growth inhibition at 20 mg/kg/day, po administered once daily for 21 days relative to control; format: functional; details: NCI-N87, 504 h, time 21 day, read-out: TGI
[28] = Toxicity in BALB/c nude mouse xenografted with human BT-474 cells assessed as reduction in body weight at 5 to 40 mg/kg, po administered once daily for 21 days; format: organism-based; details: in vivo, 504 h, dose 5-40 mg/kg, time 21 day
[29] = Toxicity in BALB/c nude mouse xenografted with human BT-474 cells assessed as mortality at 5 to 40 mg/kg, po administered once daily for 21 days; format: organism-based; details: in vivo, 504 h, dose 5-40 mg/kg, time 21 day
BaF3 [30] = assay: Antitumor activity against mouse BaF3 cells harbouring HER2 A775_G776insYVMA mutant xenografted in BALB/c nude mouse assessed as tumor growth inhibition at 20 mg/kg, po qd measured for 13 days relative to control; format: functional; details: BaF3, 312 h, time 13 day, read-out: TGI
BaF3 [31] = assay: Antitumor activity against mouse BaF3 cells harbouring HER2 A775_G776insYVMA mutant xenografted in BALB/c nude mouse assessed as tumor growth inhibition by measuring relative tumor growth at 40 mg/kg, po qd for 13 days by caliper method relative to control; format: functional; details: time 13 day
[32] = Toxicity in BALB/c nude mouse xenografted with mouse BaF3 cells harbouring HER2 A775_G776insYVMA mutant assessed as reduction in body weight at 10 to 40 mg/kg, po qd for 13 days; format: organism-based; details: in vivo, 312 h, dose 10-40 mg/kg, time 13 day
[33] = Toxicity in BALB/c nude mouse xenografted with mouse BaF3 cells harbouring HER2 A775_G776insYVMA mutant assessed as mortality at 10 to 40 mg/kg, po qd for 13 days; format: organism-based; details: in vivo, 312 h, dose 10-40 mg/kg, time 13 day
BT-474 = assay: Antitumor activity against human BT-474 cells xenografted in BALB/c nude mouse assessed as tumor growth inhibition at 10 mg/kg/day, po administered once daily for 21 days relative to control; format: functional; details: BT-474, 504 h, time 21 day, read-out: TGI
NCI-N87 [34] = assay: Antitumor activity against human NCI-N87 cells xenografted in BALB/c nude mouse assessed as tumor growth inhibition at 10 mg/kg/day, po administered once daily for 21 days relative to control; format: functional; details: NCI-N87, 504 h, time 21 day, read-out: TGI

Epidermal growth factor receptor, sequence (P00533 whole entry, the tested form may be a part): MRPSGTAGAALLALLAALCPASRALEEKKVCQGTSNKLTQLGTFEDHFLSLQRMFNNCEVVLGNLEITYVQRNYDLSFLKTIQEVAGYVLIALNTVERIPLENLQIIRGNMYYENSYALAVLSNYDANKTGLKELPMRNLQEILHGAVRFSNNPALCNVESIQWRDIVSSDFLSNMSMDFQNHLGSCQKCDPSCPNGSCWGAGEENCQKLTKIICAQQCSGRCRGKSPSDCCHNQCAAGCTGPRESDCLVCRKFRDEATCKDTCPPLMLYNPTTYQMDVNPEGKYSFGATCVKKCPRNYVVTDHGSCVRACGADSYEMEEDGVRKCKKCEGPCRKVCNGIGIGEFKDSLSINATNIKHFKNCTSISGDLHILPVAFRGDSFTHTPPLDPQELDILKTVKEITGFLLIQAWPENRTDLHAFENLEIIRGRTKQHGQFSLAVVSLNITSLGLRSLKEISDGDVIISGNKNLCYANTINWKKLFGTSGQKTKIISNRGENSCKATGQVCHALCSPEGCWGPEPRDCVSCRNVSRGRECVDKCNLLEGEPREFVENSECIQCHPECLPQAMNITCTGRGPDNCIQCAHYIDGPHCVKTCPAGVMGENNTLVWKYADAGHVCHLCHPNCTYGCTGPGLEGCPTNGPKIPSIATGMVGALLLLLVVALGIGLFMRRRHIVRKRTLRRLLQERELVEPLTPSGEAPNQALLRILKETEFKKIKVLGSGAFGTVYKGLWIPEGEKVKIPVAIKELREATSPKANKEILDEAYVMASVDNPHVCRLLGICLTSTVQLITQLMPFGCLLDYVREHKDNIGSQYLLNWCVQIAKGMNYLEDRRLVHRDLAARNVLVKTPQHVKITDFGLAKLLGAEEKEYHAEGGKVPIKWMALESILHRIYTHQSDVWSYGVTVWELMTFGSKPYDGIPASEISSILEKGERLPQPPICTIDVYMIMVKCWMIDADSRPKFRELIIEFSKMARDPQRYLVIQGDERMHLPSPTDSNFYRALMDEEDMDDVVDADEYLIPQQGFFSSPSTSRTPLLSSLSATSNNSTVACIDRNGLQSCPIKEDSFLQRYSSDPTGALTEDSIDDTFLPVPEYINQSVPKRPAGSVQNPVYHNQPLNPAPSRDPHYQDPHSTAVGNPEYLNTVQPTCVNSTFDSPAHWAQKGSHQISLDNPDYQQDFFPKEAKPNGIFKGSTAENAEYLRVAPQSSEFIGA
Receptor tyrosine-protein kinase erbB-2 (Homo sapiens, UniProt P04626, D769H), sequence (P04626 23-1255 D769H limits assumed): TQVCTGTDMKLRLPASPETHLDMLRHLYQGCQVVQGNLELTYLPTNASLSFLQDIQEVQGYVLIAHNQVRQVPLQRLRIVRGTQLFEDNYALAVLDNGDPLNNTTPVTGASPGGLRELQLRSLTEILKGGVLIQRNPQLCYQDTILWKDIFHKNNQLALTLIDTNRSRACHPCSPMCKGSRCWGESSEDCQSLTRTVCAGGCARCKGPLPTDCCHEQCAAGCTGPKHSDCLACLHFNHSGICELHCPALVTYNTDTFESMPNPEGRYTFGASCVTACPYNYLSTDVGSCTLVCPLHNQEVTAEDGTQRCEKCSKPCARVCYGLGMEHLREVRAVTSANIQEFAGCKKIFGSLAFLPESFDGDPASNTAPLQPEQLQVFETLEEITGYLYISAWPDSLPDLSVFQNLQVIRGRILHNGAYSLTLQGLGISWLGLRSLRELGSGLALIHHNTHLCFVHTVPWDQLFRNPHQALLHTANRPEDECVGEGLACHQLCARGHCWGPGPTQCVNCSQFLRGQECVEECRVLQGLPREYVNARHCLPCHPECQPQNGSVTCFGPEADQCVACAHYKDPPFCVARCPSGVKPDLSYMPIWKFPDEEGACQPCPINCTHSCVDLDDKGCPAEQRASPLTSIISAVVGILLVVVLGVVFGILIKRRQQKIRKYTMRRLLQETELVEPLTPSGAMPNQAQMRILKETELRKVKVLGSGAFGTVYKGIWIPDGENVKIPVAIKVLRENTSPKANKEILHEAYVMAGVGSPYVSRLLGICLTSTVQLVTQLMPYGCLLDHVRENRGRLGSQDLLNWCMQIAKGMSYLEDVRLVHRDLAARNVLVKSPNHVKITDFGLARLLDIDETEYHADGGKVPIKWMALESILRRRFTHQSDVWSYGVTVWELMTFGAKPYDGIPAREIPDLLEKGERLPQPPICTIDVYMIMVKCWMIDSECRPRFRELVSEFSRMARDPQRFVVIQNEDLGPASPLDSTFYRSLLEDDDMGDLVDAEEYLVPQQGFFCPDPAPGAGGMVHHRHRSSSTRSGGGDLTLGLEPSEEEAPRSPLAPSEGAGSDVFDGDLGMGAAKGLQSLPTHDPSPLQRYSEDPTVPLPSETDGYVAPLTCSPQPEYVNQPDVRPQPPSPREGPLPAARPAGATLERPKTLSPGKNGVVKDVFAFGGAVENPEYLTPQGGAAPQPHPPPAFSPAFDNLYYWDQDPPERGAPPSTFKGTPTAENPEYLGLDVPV
Receptor tyrosine-protein kinase erbB-2 (Homo sapiens, UniProt P04626), sequence (P04626 whole entry, the tested form may be a part): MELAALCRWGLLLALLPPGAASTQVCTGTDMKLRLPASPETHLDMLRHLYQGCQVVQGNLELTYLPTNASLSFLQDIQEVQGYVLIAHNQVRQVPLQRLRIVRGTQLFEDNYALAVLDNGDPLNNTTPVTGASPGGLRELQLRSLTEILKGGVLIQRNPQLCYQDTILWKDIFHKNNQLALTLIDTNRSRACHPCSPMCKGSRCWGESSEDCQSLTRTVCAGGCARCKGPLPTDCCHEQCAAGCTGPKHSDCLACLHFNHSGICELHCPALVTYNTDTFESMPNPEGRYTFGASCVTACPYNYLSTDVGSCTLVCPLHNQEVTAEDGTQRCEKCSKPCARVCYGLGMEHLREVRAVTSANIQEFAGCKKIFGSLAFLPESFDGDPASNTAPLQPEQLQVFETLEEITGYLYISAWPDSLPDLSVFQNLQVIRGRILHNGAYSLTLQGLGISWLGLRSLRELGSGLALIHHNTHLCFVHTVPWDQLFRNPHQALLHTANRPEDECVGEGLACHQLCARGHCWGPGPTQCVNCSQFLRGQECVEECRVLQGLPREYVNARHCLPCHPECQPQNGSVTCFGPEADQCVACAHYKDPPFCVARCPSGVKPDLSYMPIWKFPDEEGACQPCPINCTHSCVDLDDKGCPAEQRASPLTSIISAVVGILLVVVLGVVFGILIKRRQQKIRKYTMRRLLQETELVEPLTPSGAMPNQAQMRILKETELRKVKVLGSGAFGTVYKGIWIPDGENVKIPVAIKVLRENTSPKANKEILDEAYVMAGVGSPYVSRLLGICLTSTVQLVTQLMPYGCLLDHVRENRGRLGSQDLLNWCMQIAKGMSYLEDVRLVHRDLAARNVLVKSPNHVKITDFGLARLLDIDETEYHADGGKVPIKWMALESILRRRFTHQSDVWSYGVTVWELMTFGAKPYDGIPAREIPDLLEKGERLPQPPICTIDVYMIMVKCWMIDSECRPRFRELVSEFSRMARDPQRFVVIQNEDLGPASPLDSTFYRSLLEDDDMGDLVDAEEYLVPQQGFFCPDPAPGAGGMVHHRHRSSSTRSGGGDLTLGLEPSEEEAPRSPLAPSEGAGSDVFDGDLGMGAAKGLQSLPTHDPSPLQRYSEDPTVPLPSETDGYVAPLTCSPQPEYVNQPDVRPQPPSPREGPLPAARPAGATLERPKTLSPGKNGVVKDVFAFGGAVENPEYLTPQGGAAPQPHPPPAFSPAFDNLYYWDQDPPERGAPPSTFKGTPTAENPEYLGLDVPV

## CCOc1cc2ncnc(Nc3ccc(Oc4cc5nncn5cn4)c(C)c3)c2cc1NC(=O)/C(F)=C/[C@H]1CCCN1C
[1]
  IC50: 3.51 nM
[2]
  IC50: 8.13 nM
NCI-N87 [3]
  IC50: 1.09 nM
[4]
  Activity: Non-Toxic
[5]
  Activity: Non-Toxic
NCI-N87 [6]
  T/C: 5.26%
[7]
  half-life at 1 µM: 9.24 h
[8]
  clearance: 13 mL/min/kg
[9]
  clearance: 10.2 mL/min/kg
[10]
  half-life: 3.76 h
[11]
  Cmax: 1900 ng/mL
[12]
  AUC(0-t) at 24 h: 13100 ng·h/mL
[13]
  half-life: 3.6 h
[14]
  bioavailability: 87.7%
[15]
  half-life: 4.56 h
[16]
  Vd: 3.55 L/kg
[17]
  Cmax: 760 ng/mL
[18]
  Tmax: 3.33 h
[19]
  AUC(0-t) at 24 h: 5470 ng·h/mL
[20]
  half-life: 7.46 h
[21]
  Vd: 3.71 L/kg
[22]
  Cmax: 790 ng/mL
[23]
  Tmax: 7.5 h
[24]
  half-life: 5.63 h
MFE-280
  IC50: 3970 nM
[25]
  IC50: 3600 nM
[26]
  IC50: 0.42 nM
NCI-N87 [27]
  inhibition in vivo at 20 mg/kg/day: 114%
[28]
  Activity: Non-Toxic
[29]
  Activity: Non-Toxic
BaF3 [30]
  inhibition in vivo at 20 mg/kg: 107%
BaF3 [31]
  T/C: 2%
[32]
  Activity: Non-Toxic
[33]
  Activity: Non-Toxic
BT-474
  inhibition in vivo at 10 mg/kg/day: 123%
NCI-N87 [34]
  inhibition in vivo at 10 mg/kg/day: 113%

Source: ChEMBL document CHEMBL5154811, “Discovery of SPH5030, a Selective, Potent, and Irreversible Tyrosine Kinase Inhibitor for HER2-Amplified and HER2-Mutant Cancer Treatment” (J Med Chem, 2022)
